From patent US20120329767A1, “Methods and Compositions for Treating Cancer” (priority 2010, published 2012)
Read-outs that look alike come from different tables or passages of the source.

Experiments:
[1] = tested on: N2A; assay: MTT test on N2A neuroblastoma line; type: cell-based; settings: MTT method
[2] = tested on: Black-6 mice; settings: Black-6 mice aged 8 weeks, single dose, intraperitoneal, followed up over 15 days
From the text: As comparison, the acute toxicity of the above-described reference compound is given.
In this experiment, the injections were given via intraperitoneal route with groups of 5 animals per dose. The weight and survival of the animals were followed up over 15 days.

[3] = tested on: melanoma model F10B16 implanted in Black-6 mice; assay: Tumour growth in in vivo melanoma model F10B16; settings: F10B16 melanoma in Black-6 mice, twice a week at 7.5 μmol/kg
From the text: To determine the anti-cancer potential of these molecules, we analyzed the effects of compound 8 and compound 9 on tumour growth, using the in vivo melanoma model F10B16 implanted in Black-6 mice. […] The chronic treatments (twice a week at 7.5 μmol/kg) in mice having tumours led to a reduction in tumour growth. This reduction in tumour growth (treated tumour volume/non-treated tumour volume: T/C) was of the order of 80% for compound 8 and 60% for compound 9 (see Table 4 and FIGS. 6 and 7).
In these experiments, the […] cells (200 000 cells) were implanted sub-cutaneously in Black-6 mice aged 8 weeks. Groups of 6 mice per condition were formed. The treatments were started when the tumours were palpable with a volume of the order of 100 mm^3.

[4] = tested on: HCT-116 cells; assay: MTT test on HCT116 colon cancer cells; type: cell-based, human; settings: MTT method, Table 2
Description: A human glioblastoma line (A172) and a colon cancer line (HCT116) were used to test the cytostatic effects of the compounds according to the invention. Cisplatin was chosen as cytotoxic agent for comparison. As first approach, a MTT test was used to measure the activity of a mitochondrial enzyme which gives an estimation of the number of cells.
The experiments were performed under a vertical laminar flow hood. The cell growth medium was composed of DMEM (Dulbecco's Modified Eagle's Medium), HEPES, 10% FCS (Foetal Calf Serum), 5% PS (Penicillin, Streptomycin) and was stored at +4° C., and PBS (Phosphate Buffer Saline, pH=7.4). […] MTT (4,5-dimethylthiazol-2-diphenyltetrazolium bromide) is a yellow solid produced by Aldrich. […]
(§3) When they were sufficiently numerous (70% confluence) they were washed in PBS at ambient temperature then mixed with 1.5 mL of Trypsin-EDTA to detach them from the Petri dish. […] After 48 hours, the medium was replaced by a MTT solution at 37° in the medium, which was placed in the incubator for at least one hour or until violet crystals derived from the complexing of MTT were formed quantitatively at the bottom of each well. […] The optical density of the solutions obtained was read off. […]
The IC50 values (μM) were determined for each of the lines and compared with the values obtained for a reference ruthenium derived compound.

[5] = tested on: CHOP protein; assay: Expression of the CHOP protein, Western blot; type: cell-based, human; settings: A172 tumour cells treated 6 hours at 5 μM and 10 μM, versus reference compound
From the text: (§1) To determine via which mechanisms of action compounds 8 and 9 could lead to slowing of cell proliferation or to cell death, the activation of two specific markers, the expression of the CHOP protein and phosphorylation of the histone H2AX on the serine site […] were monitored. The CHOP protein has pro-apoptotic properties (induction of cell death). Phosphorylation of the H2AX histone is a marker of DNA damage which leads to activation of p53, a protein having pro-apoptotic properties or the property of slowing cell proliferation.
(§2) In these experiments, the tumour cells A172 were treated for 6 hours with the compounds at two concentrations (5 μM and 10 μM). After the 6 hour treatment time, the cells were lysed and […] of soluble proteins were separated on 12% polyacrylamide gel. After migration, the proteins were transferred onto nitrocellulose using the Western blot technique. The proteins CHOP and H2AX were then detected using specific primary antibodies, themselves recognized by corresponding secondary antibodies whose peroxidase activity was identified using an ECL kit.

[6] = tested on: histone H2AX; assay: Phosphorylation of histone H2AX, Western blot; type: cell-based, human; settings: A172 tumour cells treated 6 hours at 5 μM and 10 μM, versus reference compound
From the text: as §1, §2

[7] = tested on: U87; assay: MTT test on U87 glioblastoma line; type: cell-based; settings: MTT method
[8] = tested on: Katto III; assay: MTT test on Katto III pancreatic cancer line; type: cell-based; settings: MTT method, Katto III gastric cancer
[9] = tested on: A2780; assay: MTT test on A2780 ovarian cancer line; type: cell-based; settings: MTT method
[10] = tested on: HCT116 cells; assay: Cell cycle profile by FACS after propidium iodide staining; type: cell-based, human; settings: HCT116 cells treated 48 h at 1 μM and 5 μM
From the text: The effect of compounds 8 and 9 on the cell profile was studied using the FACS technique (Fluorescence Activated Cell Sorter i.e. the association of a flow cytometer and a cell sorter) after staining the cells with propidium iodide to visualize the quantity of cell DNA. These analyses allow visualization of the cell cycle phase at which the cells accumulate subsequent to treatment with the compounds of the invention, and possibly whether cell death by apoptosis has been induced.
In this experiment, the HCT116 cells were treated for 48 h at the indicated doses (1 μM and 5 μM). After a treatment time of 48 h, the cells were washed three times with PBS (phosphate buffer saline) and fixed in 90% ethanol. The cells were then stained with a solution of propidium iodide/RNase. The stained cells (10 000 per sample) were then counted using a FACScan flow cytometer and CellQuest software (Becton Dickinson) to determine the DNA content and the profile of the cell cycle.

[11] = tested on: A-172 cells; assay: MTT test on A172 glioblastoma cells; type: cell-based, human; settings: 48 h treatment, A-172 glioblastoma cells, Table 1
Description: Cisplatin was chosen as cytotoxic agent for comparison. As first approach, a MTT test was used to measure the activity of a mitochondrial enzyme which gives an estimation of the number of cells.
The experiments were performed under a vertical laminar flow hood. The cell growth medium was composed of DMEM (Dulbecco's Modified Eagle's Medium), HEPES, 10% FCS (Foetal Calf Serum), 5% PS (Penicillin, Streptomycin) and was stored at +4° C., and PBS (Phosphate Buffer Saline, pH=7.4). […] MTT (4,5-dimethylthiazol-2-diphenyltetrazolium bromide) is a yellow solid produced by Aldrich. It was placed in sterile aqueous solution at a concentration of 5 mg/ml and stored at +4° C. It was diluted to 10% in the cell culture medium when used as staining agent of the living cells.
as §3

[12] = tested on: Fadu; assay: MTT test on Fadu head & neck cancer line; type: cell-based; settings: MTT method
[13] = tested on: 3LL; assay: MTT test on 3LL lung cancer line; type: cell-based; settings: MTT method

SMILES	IC50 [1] [nM]	LD50 [2] [µmol/kg]	T/C (reduction in tumour growth; treated tumour volume/non-treated tumour volume) ([3]; listed as Compound 8) [%]	T/C (reduction in tumour growth; treated tumour volume/non-treated tumour volume) ([3]; listed as compound 8) [%]	IC50 [4] [nM]	Induction of expression of the CHOP protein [5]	Phosphorylation of the histone H2AX on the serine site 137 [6]	IC50 [7] [nM]	IC50 [8] [nM]	IC50 [9] [nM]	Profile of the cell cycle [10]	IC50 [11] [nM]	IC50 [12] [nM]	IC50 [13] [nM]	LD50 ([2]; listed as Compound 9) [µmol/kg]	LD50 ([2]; listed as compound 9) [µmol/kg]	T/C (reduction in tumour growth; treated tumour volume/non-treated tumour volume) ([3]; listed as Compound 9) [%]	T/C (reduction in tumour growth; treated tumour volume/non-treated tumour volume) ([3]; listed as compound 9) [%]
CC#[N+][Ru-4]123([c]4c(cc(C(=O)OC)cc4-c4cccc[n+]41)-c1cccc[n+]12)[n+]1cccc2ccc4ccc[n+]3c4c21.F[P-](F)(F)(F)(F)F [Compound (8)]	1000 to 2000	22.5	81	~80	1000 to 2000	more efficient	more efficient	1000 to 2500	1000 to 2000	1000 to 2000	induce a halt in the cell cycle at phase G1 or cell death	1500 to 1900	1000 to 2000	1000 to 2000				
CC#[N+][Ru-4]123([c]4c(cc(C)cc4-c4cccc[n+]41)-c1cccc[n+]12)[n+]1cccc2ccc4ccc[n+]3c4c21.F[P-](F)(F)(F)(F)F [Compound (9)]	100 to 1000				100 to 1000	more efficient	more efficient	1000 to 2000	100 to 1000	100 to 1000	induce a halt in the cell cycle at phase G1 or cell death	600 to 1000	100 to 1000	100 to 1000	>60	> 60	58	~60
